The source of these data is patent US8389482B2, “Short peptides useful for treatment of ischemia/reperfusion injury and other tissue damage conditions associated with nitric oxide and its reactive species” (New York University, priority 2007, dated 2013).

Residues, ends and D or L forms follow the SMILES beside them.

In assay [1] the test system is peroxynitrite (ONOO)-nitrated albumin. The assay can be described thus: In vitro denitration of peroxynitrite-nitrated albumin, dot-immunoblotting with antibodies against 3-NT. In kind it is biochemical. As to conditions: 20 μM peptide, 10 mM Tris HCl pH 7.2, 25° C., after 10 minutes. An excerpt:
Several groups have previously reported an in vivo denitration phenomenon (e.g., Kamisaki et al (1998) Proc Natl Acad Sci USA 95: 11584-11589; Aulak et al (2004) Am J Physiol Heart Circ Physiol 286: H30-H38). However, they tried to isolate denitration activity using pure 3-NT and failed. The present inventors have hypothesized that the stability of pure 3-NT is much higher than the stability of 3-NT incorporated in a protein and used ONOO-nitrated albumin as the substrate for detecting denitration activity.
To test the ability of L-CEFH peptide (Cys-Glu-Phe-His; SEQ ID NO: 1) to mediate 3-NT denitration in vitro, 20 μM CEFH peptide solution containing 10 mM Tris HCl pH 7.2 was added to albumin previously nitrated by peroxynitrite (ONOO^−). Denitration of the peroxynitrite (ONOO)-nitrated albumin following 0, 3, or 10 minutes of incubation with L-CEFH peptide was then visualized by dot-immunoblotting with antibodies against 3-NT.

Assay [2] relates to rat model of myocardial infarction. The assay can be described thus: Myocardial ischemia-reperfusion (MI/R) injury in a rat model of myocardial infarction, infarct size NA/AR. In kind it is in vivo. As to the method:
(§1) Myocardial ischemia (MI) was produced in anaesthetized adult male Wistar rats (300-350 grams) under controlled ventilation. After thoracotomy at the fourth intercostal space, the heart was exteriorized and a 6-0 silk ligature was passed under the left coronary artery with a needle. After 30 minutes of MI, the ligature was released and the myocardium was reperfused for 1 hour. Rats were randomized 5 minutes after the beginning of reperfusion to receive either vehicle (control, n=6) or L-CEFH peptide (0.7 mg/kg; n=9) i.v. The extent of MI/R injury, or infarct size, was determined by calculating the ratio of the area of necrosis (NA) to the area at risk (AR). Accumulation of 3-NT in the tested heart tissue corresponding to the area at risk was analyzed by Western dot-immunoblotting of total protein (extracted from the area at risk) with antibodies against 3-NT.
Rat model of myocardial infarction was generated as disclosed in Example 3, above. 0, 0.02, 0.05, 0.1, 0.14, 0.35, and 0.7 mg/kg of D-CEFH peptide (N≦4 for each concentration) were administered i.v. The extent of MI/R injury, or infarct size, was determined by calculating the ratio of the area of necrosis (NA) to the area at risk (AR).

The next assay deals with HeLa cells. The experiment in a line: HeLa cell survival upon NO/ONOO- exposure, MTS-based assay. To be noted: 20 μM peptide vs 5 mM cysteine. The method, then: The ability of the L-CEFH peptide (Cys-Glu-Phe-His; SEQ ID NO: 1) to reduce cell death caused by nitric oxide (NO) and peroxynitrite (ONOO^−) was tested in cell culture. Following treatment with NO/ONOO^−, HeLa cells were incubated with either a control buffer, 5 mM cysteine, or 20 μM L-CEFH peptide for 40 minutes. The percentage of cells surviving was determined by a MTS-based assay (available from Promega, Madison, Wis.).
(Tetrazolium dyes change colour on reduction, which living cells bring about.)

In assay [3] the test system is 3-nitrotyrosine (3-NT) in myocardial tissue. The assay can be described thus: 3-NT accumulation in heart tissue (area at risk) in a rat model of MI, dot-immunoblotting with anti-3-NT antibodies. Type of assay: in vivo. As to conditions: 0.7 mg/kg i.v. 5 minutes after beginning of reperfusion. The method, then:
as §1

The subject of the next assay is myocardial tissue 3-NT. To be noted: cited from earlier work.
In assay [4] the test system is myocardial ischemia (MI) in rats. As to conditions: cited from earlier work.
Where [5] appears, read: 5 mg/kg i.v., infused 1 minute prior to ischemia.

Consider `N[C@@H](CS)C(=O)N[C@@H](CCC(=O)O)C(=O)N[C@@H](Cc1ccccc1)C(=O)N[C@@H](Cc1c[nH]cn1)C(=O)O` [L-CEFH, Cys-Glu-Phe-His] (H-CEFH-OH; N-terminus and C-terminus assumed), for which the “denitration of peroxynitrite (ONOO)-nitrated albumin” value in assay [1] was over 90%. In addition, the “decrease in the infarct size (NA/AR) as compared to the control” value in assay [2] (0.7 mg/kg i.v. 5 minutes after beginning of reperfusion, 30 min MI, 1 hour reperfusion) is 3-5 fold. Moreover, in assay [2] (i.v., rat model of MI), the “dose producing maximal effect in preventing MI/R injury” value is recorded as 0.7 mg/kg. For the same compound, the “times lower concentration than cysteine giving equivalent efficacy” value in the assay on HeLa cells is 250 times. Also, the “reduction of 3-NT accumulation as compared to the control” value in assay [3] is given as “about 70%”.
For the compound `COC(=O)[C@@H](N)CCCNC(=N)N[N+](=O)[O-]` [L-NAME], in the assay with myocardial tissue 3-NT (50 mg/kg i.p.), the 3-NT entry is reported as “reduction”. The infarct size entry in assay [4] (50 mg/kg i.p.) was “reduction”.
For Cys-Glu-Phe-His [D-CEFH], in assay [2] (0.05 mg/kg vs 0.7 mg/kg, i.v.), the “fold lower concentration than L-CEFH for the same effect in preventing MI/R injury” value stood at 14 fold. For the same compound, in assay [2] (i.v., rat model of MI), the “activity in preventing MI/R injury as compared to L-CEFH” value is given as “superior activity”, the “dose producing maximal effect in preventing MI/R injury” value was found to be 0.1 mg/kg and the “dose producing the same effect as the maximal effect of L-CEFH (0.7 mg/kg)” value is recorded as 0.05 mg/kg.
For `O=NO` [sodium nitrite], the “myocardial tissue 3-NT accumulation compared with saline treated controls” value in the assay on myocardial tissue 3-NT (setting [5]) was “significant expansion”. Besides, the “I/R infarct size compared with saline treated controls” value in assay [4] (setting [5]) is reported as “significant expansion”.
